From paper PMC11277476, “Synthesis and Biological Evaluation of Novel 2-Aroyl Benzofuran-Based Hydroxamic Acids as Antimicrotubule Agents” (International Journal of Molecular Sciences, 2024)
Where two headings read alike, the source gives them in different places.

Experiments:
HeLa cells = test: In vitro growth inhibition (resazurin, 72 h), HeLa; format: cell-based; settings: Homo sapiens, concentration inhibiting tumor cell proliferation by 50%, mean ± SE
MDA-MB-231 cells = test: In vitro growth inhibition (resazurin, 72 h), MDA-MB-231; format: cell-based; settings: Homo sapiens, mean ± SE
A549 cells = test: In vitro growth inhibition (resazurin, 72 h), A549; format: cell-based; settings: Homo sapiens, mean ± SE
HT-29 cells = test: In vitro growth inhibition (resazurin, 72 h), HT-29; format: cell-based; settings: Homo sapiens, mean ± SE
MCF-7 cells = test: In vitro growth inhibition (resazurin, 72 h), MCF-7; format: cell-based; settings: Homo sapiens, MCF7, mean ± SE
bovine brain tubulin = test: Inhibition of tubulin polymerization (turbidimetric); format: biochemical; settings: tubulin at 10 μM; 20 min incubation at 30 °C; read-out: Tubulin Assembly IC50 ± SD
Experimental: (§1) Bovine brain tubulin was purified as described previously. To evaluate the effects of the compounds on tubulin assembly in vitro [77], varying concentrations were preincubated with 10 μM tubulin in 0.8 M monosodium glutamate (pH 6.6) at 30 °C, and the reaction mixtures were then cooled to 0 °C. After addition of GTP, the mixtures were transferred to 0 °C cuvettes in Beckman Coulter (Brea, CA, USA) DU-7400/DU-7500 recording spectrophotometers equipped with electronic temperature controllers and were warmed to 30 °C, and the assembly of tubulin was observed turbidimetrically. […] Inhibition of colchicine binding to tubulin was measured as described before, except that the reaction mixtures contained 0.5 μM tubulin and 5 μM each of [^3H]colchicine and test compound. Only one DEAE-cellulose filter was used per sample, and filtration was via gravity.

[1] = test system: tubulin (colchicine site); test: Inhibition of [3H]colchicine binding to tubulin; design: species or system bovine; settings: tubulin 0.5 µM, [3H]colchicine 5 µM, tested compound 5 µM
Experimental: as §1

human recombinant HDAC6 = target: T1, human recombinant HDAC6 (Homo sapiens, UniProt Q9UBN7); test: HDAC isoform inhibition, fluorogenic substrate, HDAC6; format: biochemical; settings: mean ± SE; for IC50: read-out: IC50 (µM) hHDAC6
T1 construct: purchased BPS Bioscience 50056
T1 sequence (Q9UBN7 1-1215): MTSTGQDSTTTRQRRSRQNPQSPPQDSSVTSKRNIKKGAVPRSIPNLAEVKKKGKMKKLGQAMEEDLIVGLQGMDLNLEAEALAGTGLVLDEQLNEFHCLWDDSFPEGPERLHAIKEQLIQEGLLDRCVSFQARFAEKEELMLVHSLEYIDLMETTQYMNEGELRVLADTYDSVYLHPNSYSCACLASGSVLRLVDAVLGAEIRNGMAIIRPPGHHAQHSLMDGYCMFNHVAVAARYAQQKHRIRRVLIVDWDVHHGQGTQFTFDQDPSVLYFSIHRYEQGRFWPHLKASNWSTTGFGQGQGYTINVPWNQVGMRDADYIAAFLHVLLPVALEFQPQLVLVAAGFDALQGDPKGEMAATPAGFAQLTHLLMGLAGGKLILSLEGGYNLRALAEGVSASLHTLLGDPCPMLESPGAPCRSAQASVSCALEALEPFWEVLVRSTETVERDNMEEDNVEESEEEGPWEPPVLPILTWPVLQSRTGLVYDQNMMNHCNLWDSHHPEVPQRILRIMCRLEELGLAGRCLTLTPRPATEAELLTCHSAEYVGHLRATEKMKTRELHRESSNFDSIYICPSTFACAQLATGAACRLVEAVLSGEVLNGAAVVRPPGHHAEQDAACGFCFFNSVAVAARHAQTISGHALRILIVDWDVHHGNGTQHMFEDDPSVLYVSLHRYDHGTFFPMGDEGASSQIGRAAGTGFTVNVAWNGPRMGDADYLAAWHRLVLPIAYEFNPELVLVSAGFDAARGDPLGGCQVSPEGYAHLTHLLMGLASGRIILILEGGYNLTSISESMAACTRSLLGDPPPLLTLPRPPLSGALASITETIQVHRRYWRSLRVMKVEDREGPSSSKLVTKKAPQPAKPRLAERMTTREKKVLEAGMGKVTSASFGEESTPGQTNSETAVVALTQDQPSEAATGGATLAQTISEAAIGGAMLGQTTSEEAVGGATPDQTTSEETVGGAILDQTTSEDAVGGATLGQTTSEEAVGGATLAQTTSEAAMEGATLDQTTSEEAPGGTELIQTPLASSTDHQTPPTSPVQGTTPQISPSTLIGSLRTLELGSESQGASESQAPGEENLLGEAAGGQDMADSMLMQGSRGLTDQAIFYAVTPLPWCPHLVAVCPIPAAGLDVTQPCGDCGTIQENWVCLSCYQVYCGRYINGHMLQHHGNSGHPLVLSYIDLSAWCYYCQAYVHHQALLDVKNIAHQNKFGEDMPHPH
Experimental: Further experiments were also carried out to evaluate the inhibitory activities of test compounds on selected HDAC isoforms. […] Following an incubation of 15 min at RT, fluorescence was measured in an EnSight multimodal plate reader (PerkinElmer, Boston, MA, USA) with an excitation wavelength of 360 nm and an emission wavelength of 450 nm.

[2] = test system: panel of five human cancer cell lines (HeLa, MDA-MB-231, A549, HT-29, MCF-7); test: In vitro growth inhibition, range over the panel of five cancer cell lines
Experimental: All the cell lines were purchased from the American Type Culture Collection (ATCC, Manassas, VA, USA). Drug stock solutions were prepared for each compound by dissolving them in DMSO at 10 mM.
Cancer cells were seeded in tissue treated, flat bottom, 384-well plates (Corning, Corning, NY, USA) according to their optimal density, in 27 μL of complete medium per well, using a Microlab STAR 96-CORE liquid handling system (Hamilton Bonaduz, Bonaduz, Switzerland) as described previously [75]. Each compound was tested in a 6-points 2-fold dose–response curve, and each dose was tested in duplicate within each plate, in three independent experiments. The final concentration of DMSO in the wells never exceeded 0.1%, which was the maximum concentration.
Only plates with acceptable Z-prime quality metrics (Z′ > 0.6) were further analyzed for the drug screening. Raw data were normalized according to the following equation: cell viability (%) = (x − POS)/(NEG − POS) × 100, where x is the relative fluorescence units (RFU) collected from each single well, NEG is the mean of intraplate negative controls (DMSO, corresponding to 100% cell viability), and POS is the mean of intraplate positive controls (Bortezomib 1 μΜ, equal to 0% cell viability).

[3] = read-out: IC50 values, range or bound over the cancer cell line panel

Row | IC50 (HeLa cells) [nM] | IC50 (MDA-MB-231 cells) [nM] | IC50 (A549 cells) [nM] | IC50 (HT-29 cells) [nM] | IC50 (MCF-7 cells) [nM] | IC50 (bovine brain tubulin) [nM] | Colchicine Binding % Inhibition ± SD [1] [%] | IC50 (human recombinant HDAC6) [µM] | melting point [°C] | IC50 [2, 3] [nM] | SMILES | IC50 ([2]; read-out: IC50 values, range over the cancer cell line panel) [nM] | IC50 (µM) hHDAC6 (human recombinant HDAC6)
1 | 69.4 ± 1.45 | 377 ± 1.09 | 972 ± 7.47 | 2.16 ± 0.86 | > 10000 | 2700 ± 70 | 30 ± 2 | – | 276 to 277 | – | COc1cc2oc(C(=O)c3ccc(OC)c(OC)c3)c(C)c2cc1C#CC(=O)NO [Compound 11b, 3-[2-(3,4-Dimethoxybenzoyl)-6-methoxy-3-methyl-1-benzofuran-5-yl]-N-hydroxyprop-2-ynamide] | – | –
2 | 7.3 ± 0.03 | 43.9 ± 3 | 45.3 ± 2.93 | 96.5 ± 2.45 | 20 ± 0.7 | 560 ± 60 | 82 ± 1 | 13.8 ± 0.8 | 248 to 250 | – | COc1cc(OC)cc(C(=O)c2oc3cc(OC)c(C#CC(=O)NO)cc3c2C)c1 [Compound 11c, 3-[2-(3,5-Dimethoxybenzoyl)-6-methoxy-3-methyl-1-benzofuran-5-yl]-N-hydroxyprop-2-ynamide] | – | –
3 | 1.43 ± 0.67 | 4.09 ± 0.06 | 5.07 ± 0.22 | > 10000 | – | – | – | – | 222 to 224 | 1500 to 10000 | COc1ccc(C(=O)c2oc3cc(OC)c(C#CC(=O)NO)cc3c2C)cc1 [Compound 11d, N-Hydroxy-3-[6-methoxy-2-(4-methoxybenzoyl)-3-methyl-1-benzofuran-5-yl]prop-2-ynamide] | – | –
4 | 60.5 ± 2.26 | 345 ± 4.03 | 276 ± 6.74 | 4568 ± 21.4 | 240 ± 10 | 5400 ± 100 | 20 ± 2 | – | 243 to 245 | – | COc1cc2oc(C(=O)c3ccccc3OC)c(C)c2cc1C#CC(=O)NO [Compound 11f, N-Hydroxy-3-[6-methoxy-2-(2-methoxybenzoyl)-3-methyl-1-benzofuran-5-yl]prop-2-ynamide] | – | –
5 | 15.2 ± 0.02 | 101 ± 0.03 | 206 ± 2.92 | 1.58 ± 0.06 | – | – | – | – | 205 to 206 | – | COc1cc2oc(C(=O)c3ccccc3)c(C)c2cc1C#CC(=O)NO [Compound 11g, 3-(2-Benzoyl-6-methoxy-3-methyl-benzofuran-5-yl)prop-2yne hydroxamic acid] | – | –
6 | > 10000 | > 10000 | > 10000 | > 10000 | > 10000 | – | – | – | 254 to 256 | > 10000 | COc1cc(C(=O)c2oc3ccc(C#CC(=O)NO)cc3c2C)cc(OC)c1OC [Compound 11h, 3-[3-Methyl-2-(3,4,5-trimethoxybenzoyl)benzofuran-5-yl]prop-2-yne hydroxamic acid] | – | –

The next lines start with the compound.

Row | SMILES | IC50 (HeLa cells) [nM] | IC50 (MDA-MB-231 cells) [nM] | IC50 (A549 cells) [nM] | IC50 (HT-29 cells) [nM] | IC50 (MCF-7 cells) [nM] | IC50 (bovine brain tubulin) [nM] | Colchicine Binding % Inhibition ± SD [1] [%] | IC50 (human recombinant HDAC6) [µM] | melting point [°C] | IC50 [2, 3] [nM] | IC50 ([2]; read-out: IC50 values, range over the cancer cell line panel) [nM] | IC50 (µM) hHDAC6 (human recombinant HDAC6)
7 | COc1cc2oc(C(=O)c3ccc(OC)c(OC)c3)c(C)c2cc1/C=C/C(=O)NO [Compound 6b, (E)-3-(2-(3,4-Dimethoxybenzoyl)-6-methoxy-3-methylbenzofuran-5-yl)-N-hydroxyacrylamide] | 36.8 ± 4.13 | 72.6 ± 5.03 | 187 ± 1.02 | 401 ± 2.03 | 40 ± 4 | 1100 ± 200 | 41 ± 5 | > 30 | 198 to 199 | – | – | –
8 | COc1ccc(C(=O)c2oc3cc(OC)c(/C=C/C(=O)NO)cc3c2C)cc1 [Compound 6d, (E)-N-Hydroxy-3-(6-methoxy-2-(4-methoxybenzoyl)-3-methylbenzofuran-5-yl)acrylamide] | 47.6 ± 1.22 | 322 ± 12.4 | 222 ± 1.09 | 881 ± 8.23 | 59 ± 10 | 1700 ± 100 | 27 ± 4 | 12.6 ± 0.8 | 168 to 170 | – | – | –
9 | COc1cc(C(=O)c2oc3ccc(/C=C/C(=O)NO)cc3c2C)cc(OC)c1OC [Compound 6h, (E)-N-Hydroxy-3-(3-methyl-2-(3,4,5-trimethoxybenzoyl)benzofuran-5-yl)acrylamide] | > 10000 | > 10000 | > 10000 | > 10000 | > 10000 | – | – | – | 188 to 190 | > 10000 | – | –
10 | C#Cc1cc2c(C)c(C(=O)c3cc(OC)c(OC)c(OC)c3)oc2cc1OC [Compound 8, (5-ethynyl-6-methoxy-3-methyl-benzofuran-2-yl)-(3,4,5-trimethoxyphenyl)methanone] | 18.2 ± 0.02 | 81.2 ± 6 | 122 ± 8.6 | 207 ± 14 | – | – | – | – | 186 to 188 | – | 18 to 207 | –
11 | COc1cccc(C(=O)c2oc3cc(OC)c(C#CC(=O)NO)cc3c2C)c1 [Compound 11e, N-Hydroxy-3-[6-methoxy-2-(3-methoxybenzoyl)-3-methyl-1-benzofuran-5-yl]prop-2-ynamide] | 8.4 ± 0.98 | 96.7 ± 1.65 | 94.4 ± 3.03 | 4.89 ± 0.03 | 15 | 420 ± 30 | 81 ± 3 | > 30 | – | – | – | does not show any activity at the highest concentration tested
